# “And” between values parts separate entries of the source, which are not always exact repeats. Equal values may be shown once.
# How the values were obtained:
# [1] = system: untransfected (UT) CHO cells; test: Cell assay (liposome/EV binding, flow cytometry);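 as to liposome binding, fluorescence signal (replicates): AF647 fluorescence intensity from 0.1 mol% AF647–PEG45–DSPE in liposomes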; type: cell-based, Chinese Hamster; details: for log10(MFI AF647) of GLL relative to log10(MFI AF647) of the same GLL against UT CHO cells (Fig. 2a): 3 mol% ganglioside liposomes, replicates
# Experimental: (§1) Stock lipids (DSPC, Cholesterol, PEG45–DSPE) solutions were prepared by solvating the lipids in chloroform. An appropriate volume of each lipid solution was transferred to a glass test tube to reach the desired mol% of the component. The chloroform was then removed under N2 gas to yield a lipid thin film. Once dry, 100 µL of DMSO was added to the lipid-containing test tube and then the functional lipids (ganglioside, AF647–PEG45–DSPE, Siglec ligand–PEG45–DSPE, pHrodo–PEG45–DSPE, NGL) was added from their respect DMSO stock solution. The lipid mixture was then stored at −80 °C until completely frozen at which point excess DMSO was removed via lyophilization. Dry lipids were then stored at −80 °C until they were extruded. Lipid suppliers can be found in Supplementary Table 4.
# (§2) Dry lipids were then hydrated in 1 mL of PBS. The lipids were then sonicated in a bath sonicator in a cycle of 1 min on, 5 min off for a total of five cycles. Liposomes were then extruded using an Avanti mini extruder first using an 800 nm filter and then a 100 nm filter yielding liposomes that were 130 ± 35 nm (Supplementary Table 5) measured using a Malvern Panalytical Zetasizer Nano S. Liposomes were stored at 4 °C.
# (§3) 200,000 cells/well were plated into a 96-well U-bottom microplate and centrifuged at 300 × g for 5 min. The cells were then resuspended in 50 µL of 50 µM liposome/50 µg/mL (protein concentration) of EV solution in DMEM F12 5% FBS and incubated at 37 °C for 30 min. Excess liposomes were then removed via centrifuged at 300 × g for 5 min followed by washing the cells with FACS solution. The cells were then resuspended in (1:250 V/V) anti-Siglec-flow buffer (1% V/V FBS, 500 µM, EDTA Hank’s Balanced Salt Solution pH 7.4), solution and left to rest on ice for 30 min. The cells were then centrifuged again at 300 × g for 5 min and the cells were resuspended in FACS buffer solution and were then ready for analysis by flow cytometry. Information regarding antibody clone, catalog number supplier, label isotype, and dilution can be found in Supplementary Table 6. The Siglec-positive cells were gated on for liposome-binding analysis (Supplementary Fig. 1b).
# (§4) Flow cytometry measurements were collected on a 5-laser Fortessa X-20 (BD Bioscience). All the resulting data were analyzed using FlowJo (10.5.3) software (BD Biosciences).
# WT Siglec-1 CHO cells = biological target: T1, WT Siglec-1 CHO cells (Homo sapiens, UniProt Q9BZZ2); test: Cell assay (liposome/EV binding, flow cytometry); type: cell-based; parameters: GM1 liposome binding to Siglec-1 CHO cells, flow cytometry (Fig. 1b) / Binding of liposomes with increasing ganglioside content against Siglec-1 CHO cells (Fig. 1c) / Liposome binding to Siglec-1-expressing CHO cells in the cell assay (Fig. 1f): unit not given here; details: for Binding of liposomes with increasing ganglioside content against Siglec-1 CHO cells (Fig. 1c) / log10(MFI AF647) of GLL relative to log10(MFI AF647) of the same GLL against UT CHO cells (Fig. 2a): replicates; for log10(MFI AF647) of GLL relative to log10(MFI AF647) of the same GLL against UT CHO cells (Fig. 2a): Sig-1 WT, 3 mol% ganglioside liposomes
# T1 construct: expressed in transfected cells
# Experimental: as §1, §2, §3, §4
# Siglec-5 WT CHO cells = biological target: T2, Siglec-5 WT CHO cells (Homo sapiens, UniProt O15389); test: Cell assay (liposome/EV binding, flow cytometry); type: cell-based; details: for log10(MFI AF647) of GLL relative to log10(MFI AF647) of the same GLL against UT CHO cells (Fig. 2a): Sig-5 WT†, † after treatment of cells with neuraminidase, 3 mol% ganglioside liposomes, replicates
# T2 construct: expressed in transfected cells
# T2 sequence (O15389 17-551): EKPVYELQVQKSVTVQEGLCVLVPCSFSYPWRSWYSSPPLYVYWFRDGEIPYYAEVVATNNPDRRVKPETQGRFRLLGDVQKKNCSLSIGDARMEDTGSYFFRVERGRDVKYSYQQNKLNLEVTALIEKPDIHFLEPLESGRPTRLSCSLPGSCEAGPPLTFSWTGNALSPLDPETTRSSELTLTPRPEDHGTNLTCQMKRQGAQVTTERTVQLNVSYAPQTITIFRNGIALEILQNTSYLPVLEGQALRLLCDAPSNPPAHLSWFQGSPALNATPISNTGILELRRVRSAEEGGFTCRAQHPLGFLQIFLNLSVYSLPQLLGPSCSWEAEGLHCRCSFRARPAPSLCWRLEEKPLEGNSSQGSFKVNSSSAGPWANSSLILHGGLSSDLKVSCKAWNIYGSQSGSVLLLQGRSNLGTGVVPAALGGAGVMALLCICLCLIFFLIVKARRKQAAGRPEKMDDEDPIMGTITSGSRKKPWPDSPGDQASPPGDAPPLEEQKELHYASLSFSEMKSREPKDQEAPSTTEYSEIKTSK
# Experimental: as §1, §2, §3, §4
# Cells were harvested and resuspended in complete media with either Neuraminidase A or S. The cells were then placed in a 37 °C shaking incubator for 1 h. The cells were then washed with complete media and then the liposome binding assay was performed as described above.
# Siglec-1-Fc R116A = test: Ganglioside ELISA; type: binding, human; details: Figure 2c, replicates
# Experimental: Siglec-Fc constructs designed by Rodrigues et al.[30] were used in this work. Siglec-Fc constructs were expressed using WT CHO cells in cell culture media as described above with 1% HEPES. Cells incubated as described above for one-week post confluency. The supernatant was harvested and stored at 4 °C.
# The purification was heavily inspired by Rodrigues et al.[30]. The purification of the Siglec-Fcs from supernatant began with Ni^2+ affinity chromatography using an AKTA FPLC equipped with a HisTrap Excel column (GE). The column was equilibrated with fifteen column volumes (CVs) of equilibrium buffer (500 mM NaCl, 20 mM NaPO4H2, pH 7.4). The Siglec-Fc containing supernatant was then loaded in its entirety onto the column. The column was then washed with fifteen CVs of wash buffer (500 mM NaCl, 30 mM imidazole, 20 mM NaPO4H2, pH 7.4). The Siglec-Fc was then eluted in 20 in 1 mL fractions with twenty CVs of elution buffer (500 mM NaCl, 500 mM imidazole, 20 mM NaPO4H2, pH 7.4). […] A Strep-Tactin column (IBA life sciences) was washed with fifteen CVs of buffer W. The Siglec-Fc-buffer W solution was then loaded in its entirety onto the column. […] Fractions containing Siglec-Fc were pooled and dialyzed against PBS to remove any d-Desthiobiotin. After dialysis, Siglec-Fcs were concentrated using an ultra-centrifugal device (30 kDa MWCO) and aliquoted into 5 µg aliquots, and frozen. The Siglec-Fcs were then lyophilized overnight, and the lyophilized Siglec-Fcs were stored at −20 °C.
# Our ELISA approach was carried out similarly to previous work by Rapoport[12] and Yamakawa[44]. Ganglioside ethanol solutions (10 µM) were prepared and then transferred in 50 µL increments to a 96-well microplate. The ethanol was removed by drying the plates overnight at room temperature. The plates were then washed with PBS, dried, and then blocked with 5% (m/V) BSA PBS for 1 h. The plates were then washed with PBS and then 2 µg/mL Siglec-Fc precomplexed to Strep-Tactin (2 Siglec-Fc:1 Strep-Tactin monomer) horse radish peroxidase was added to the microplate. The complex was incubated with the plate at room temperature for 2 h. The unbound complexes were then removed by washing in PBS and the plate was developed with Sera care TMB solution. The amount of binding was then quantified by using the background (microplate well with no ligand) subtracted absorbance at 450 nm using a Molecular Devices SpectraMAX ® iD5.
# Siglec-1-Fc R116A, sequence (Q9BZZ2 20-136 R116A limits assumed): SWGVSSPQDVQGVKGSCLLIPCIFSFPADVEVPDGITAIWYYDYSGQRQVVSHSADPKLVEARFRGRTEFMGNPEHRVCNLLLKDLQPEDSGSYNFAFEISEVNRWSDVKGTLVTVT
# T1 sequence (Q9BZZ2 20-1709): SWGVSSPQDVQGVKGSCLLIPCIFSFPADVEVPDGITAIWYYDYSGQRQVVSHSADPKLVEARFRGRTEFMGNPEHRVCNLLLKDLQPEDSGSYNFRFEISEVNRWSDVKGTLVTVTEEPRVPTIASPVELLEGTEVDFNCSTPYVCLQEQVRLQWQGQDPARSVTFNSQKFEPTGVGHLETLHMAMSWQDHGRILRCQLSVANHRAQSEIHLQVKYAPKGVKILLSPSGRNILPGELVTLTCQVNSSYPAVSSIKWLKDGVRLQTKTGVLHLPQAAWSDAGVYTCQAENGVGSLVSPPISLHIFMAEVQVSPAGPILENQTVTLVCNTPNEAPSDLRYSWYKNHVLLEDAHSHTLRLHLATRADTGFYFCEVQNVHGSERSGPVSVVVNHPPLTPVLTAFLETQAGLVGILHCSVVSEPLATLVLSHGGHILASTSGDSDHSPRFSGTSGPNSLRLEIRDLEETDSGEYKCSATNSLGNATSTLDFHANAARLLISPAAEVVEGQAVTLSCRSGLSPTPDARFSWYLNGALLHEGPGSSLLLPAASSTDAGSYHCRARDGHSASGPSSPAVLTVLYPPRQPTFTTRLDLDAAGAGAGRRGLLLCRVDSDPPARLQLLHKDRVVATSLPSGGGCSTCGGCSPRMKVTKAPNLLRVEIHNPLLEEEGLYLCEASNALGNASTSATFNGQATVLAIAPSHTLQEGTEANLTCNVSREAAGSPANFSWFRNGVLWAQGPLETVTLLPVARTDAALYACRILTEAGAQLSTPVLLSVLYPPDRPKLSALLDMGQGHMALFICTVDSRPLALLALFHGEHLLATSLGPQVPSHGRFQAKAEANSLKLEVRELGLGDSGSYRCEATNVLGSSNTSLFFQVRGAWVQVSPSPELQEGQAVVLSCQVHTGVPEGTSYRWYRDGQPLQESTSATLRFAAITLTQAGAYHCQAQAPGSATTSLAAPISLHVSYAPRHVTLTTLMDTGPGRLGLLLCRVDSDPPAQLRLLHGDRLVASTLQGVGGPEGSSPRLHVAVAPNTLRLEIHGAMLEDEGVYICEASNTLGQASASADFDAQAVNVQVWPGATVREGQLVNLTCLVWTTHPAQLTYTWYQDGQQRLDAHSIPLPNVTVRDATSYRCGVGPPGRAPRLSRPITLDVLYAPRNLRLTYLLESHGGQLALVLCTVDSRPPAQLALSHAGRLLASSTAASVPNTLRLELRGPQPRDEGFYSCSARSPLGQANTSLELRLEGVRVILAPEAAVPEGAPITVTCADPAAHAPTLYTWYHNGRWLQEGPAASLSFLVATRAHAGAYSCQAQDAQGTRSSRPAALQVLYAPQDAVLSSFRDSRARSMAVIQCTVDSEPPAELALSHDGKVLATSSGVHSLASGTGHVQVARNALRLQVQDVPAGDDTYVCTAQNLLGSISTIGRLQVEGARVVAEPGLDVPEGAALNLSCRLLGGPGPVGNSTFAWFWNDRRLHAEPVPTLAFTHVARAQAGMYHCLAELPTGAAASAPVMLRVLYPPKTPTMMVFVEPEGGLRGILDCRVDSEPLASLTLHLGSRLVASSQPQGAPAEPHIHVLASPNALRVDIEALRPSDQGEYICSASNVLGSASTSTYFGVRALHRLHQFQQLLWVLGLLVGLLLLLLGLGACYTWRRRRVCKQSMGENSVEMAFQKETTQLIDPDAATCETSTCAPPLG
"GLL binding to Siglec-5 (in words) (Siglec-5 WT CHO cells; cell assay, optimized liposomal formulation)",Compound,"liposome binding, fluorescence signal (replicates) ([1]; sheet Figure S22b, CHO)","liposome binding, fluorescence signal (replicates) ([1]; sheet Figure S26a, 3% GM3-DAG liposomes, Untrans.)","liposome binding, fluorescence signal (replicates) ([1]; sheet Figure S28b, 3% GM3-DAG liposomes, UT)","liposome binding, fluorescence signal (replicates) ([1]; sheet Figure S26d, CHO)",log10(MFI AF647) of GLL relative to log10(MFI AF647) of the same GLL against UT CHO cells (Fig. 2a) ([1]; UT),Binding of liposomes with increasing ganglioside content against Siglec-1 CHO cells (Fig. 1c) (WT Siglec-1 CHO cells; 0.000187 Ligand/nm2),Binding of liposomes with increasing ganglioside content against Siglec-1 CHO cells (Fig. 1c) (WT Siglec-1 CHO cells; 0.00933 Ligand/nm2),Binding of liposomes with increasing ganglioside content against Siglec-1 CHO cells (Fig. 1c) (WT Siglec-1 CHO cells; 0.0187 Ligand/nm2),Binding of liposomes with increasing ganglioside content against Siglec-1 CHO cells (Fig. 1c) (WT Siglec-1 CHO cells; 0.0933 Ligand/nm2),Binding of liposomes with increasing ganglioside content against Siglec-1 CHO cells (Fig. 1c) (WT Siglec-1 CHO cells; 0.187 Ligand/nm2),Binding of liposomes with increasing ganglioside content against Siglec-1 CHO cells (Fig. 1c) (WT Siglec-1 CHO cells; 0.373 Ligand/nm2),log10(MFI AF647) of GLL relative to log10(MFI AF647) of the same GLL against UT CHO cells (Fig. 2a) (WT Siglec-1 CHO cells),ganglioside content threshold above which GLL binding to Siglec-1 CHO cells decreased (WT Siglec-1 CHO cells; ganglioside titrated in GLLs),log10(MFI AF647) of GLL relative to log10(MFI AF647) of the same GLL against UT CHO cells (Fig. 2a) (Siglec-5 WT CHO cells),"ganglioside ELISA signal, Siglec-1 R (Siglec-1-Fc R116A)"
,CCCCCCCCCCCCCCCCOCC(COCCCCCCCCCCCCCCCC)OCc1cn(CCO[C@@H]2O[C@H](CO)[C@@H](O[C@@H]3O[C@H](CO)[C@H](O)[C@H](O[C@]4(C(=O)O)C[C@H](O)[C@@H](NC(C)=O)[C@H]([C@H](O)[C@H](O)CO)O4)[C@H]3O)[C@H](O)[C@H]2O)nn1 [GM3-DAG],267 and 269 and 241 and 218,298 and 293 and 301 and 291,268 and 273 and 248 and 260,38 and 35 and 41,,,,,,,,,,,
,GD1a,,,,,0.01 and -0.05 and 0 and 0.04,-0.01,0.01,0.5 and 0.49 and 0.48 and 0.51,0.26 (2×) and 0.28 and 0.3,0.19 (3×) and 0.2,0.1 (2×) and 0.09 (2×),0.86 (2×) and 0.89 and 0.85,1–3 mol%,0.3 and 0.33 and 0.29,0.06 and 0.08 and 0.11 and 0.09
novel interactions were observed,GD1b,,,,,0.01 (2×) and -0.01 (2×),,,,,,,0.7 and 0.71 (2×) and 0.63,,0.26 and 0.29 and 0.23,0.11 and 0.13 and 0.17
